Data as given in patent publication US20210122746A1, “FEBRIFUGINE DERIVATIVES” (BRISTOL-MYERS SQUIBB COMPANY, priority 2017, published 2021).
Structures can show the parent of a compound that is named as a salt.

Target: T1, human ProRS (prolyl tRNA synthetase moiety of glutamyl prolyl tRNA synthetase) (Homo sapiens, UniProt P07814)
T1 construct: The prolyl tRNA synthetase moiety (ProRS) in the cDNA of glutamyl prolyl tRNA synthetase was subcloned; 6xHis (N, cleaved yes); made in house; host or cells: E. coli BL21 (DE3)
T1 sequence (P07814 1007-1512 limits assumed): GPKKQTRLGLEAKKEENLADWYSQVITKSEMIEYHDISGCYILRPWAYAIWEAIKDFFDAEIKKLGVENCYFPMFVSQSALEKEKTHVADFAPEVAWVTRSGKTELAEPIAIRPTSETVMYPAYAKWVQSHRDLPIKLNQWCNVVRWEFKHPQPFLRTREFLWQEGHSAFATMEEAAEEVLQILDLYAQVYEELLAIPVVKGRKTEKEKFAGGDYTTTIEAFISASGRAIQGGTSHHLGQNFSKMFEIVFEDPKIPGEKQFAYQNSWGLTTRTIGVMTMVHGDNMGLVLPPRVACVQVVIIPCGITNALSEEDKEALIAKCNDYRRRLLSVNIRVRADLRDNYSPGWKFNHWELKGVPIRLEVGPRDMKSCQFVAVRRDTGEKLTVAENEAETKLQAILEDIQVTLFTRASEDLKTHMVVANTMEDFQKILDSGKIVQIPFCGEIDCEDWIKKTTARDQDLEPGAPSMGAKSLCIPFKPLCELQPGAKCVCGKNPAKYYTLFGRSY
Test: Assay for inhibitors of prolyl tRNA synthetase activity (ProRS assay, labeled proline incorporation)
Assay type: biochemical
Conditions: ProRS 20 nM, compounds 10 μM to 0.5 nM, 10 min at 37° C.; read-out: EPR IC50
Source text: In order to establish the activities of the compounds highlighted above, we determined extent of inhibition of prolyl tRNA synthetase activity in dose response curves to obtain IC50 values.
The prolyl tRNA synthetase moiety (ProRS) in the cDNA of glutamyl prolyl tRNA synthetase was subcloned, tagged with a single biotin, purified and used in the assay. Briefly, human ProRS with a 6× N-terminal His tag in pET28N with TVMV BioP was transformed in E. coli BL21 (DE3) cells, selected, overexpressed and purified using a Ni Seph 6 FF XK 16/20 column in the first stage. Ni-NTA eluates were pooled and treated with TVMV protease, and biotinylated using d-Biotin, MgCl2, ATP and the BirA enzyme. This was rerun through a Ni column as before. The eluates were further enriched and purified using membrane ultrafiltration and a SuperDex 200 XK 16/60 column, and peak fractions were confirmed by SDS-PAGE prior to protein amount determination, aliquoting and storage at −80° C.
ProRS assay was performed in 96 well plates in a final reaction volume of 20 μl, using staggered additions of Tris-Cl (pH 7.5, 60 mM), dithiothreitol (2 mM), ATP (5 mM, pH 7.0), MgCl2 6 mM), ProRS (20 nM, with pre-determined active fraction range) and bovine tRNA (20 μg). Controls and compounds, at various concentrations (10 μM to 0.5 nM), were incubated on ice with enzyme mix for 15 min followed by addition of proline (non-labeled and labeled, 3.96 and 1.04 μM (1 μCi) respectively) to initiate the reaction. Reaction was carried out for 10 min at 37° C. and terminated by addition of TCA (10%, 100 μl). Reaction mix was collected on a Whatman GF/B filter using a vacuum filtration manifold. This filter was washed 3 times with 5% TCA followed by 2 washes with ethanol, air dried, and read using a liquid scintillation counter (TopCount NXT) using MicroScint O. IC50 values were calculated and analyzed using ToolSet (4-parameter plot) and depicted herein.

Structure (SMILES) | IC50
Cc1cc(C)c2ncn(C[C@@H](O)C[C@H]3NCC[C@@H]3O)c(=O)c2n1 [Example 37, 3-{(S)-2-hydroxy-3-[(2R,3S)-3-hydroxypyrrolidin-2-yl]propyl}-6,8-dimethylpyrido(3,2-d)pyrimidin-4(3H)-one bis (2,2,2-trifluoroacetic acid)] | > 10 µM
Cc1cc(C)c2ncn(C[C@@H](O)C[C@@H]3CCCCN3)c(=O)c2n1 [Example 36, 3-{(S)-2-hydroxy-3-[(S)-piperidin-2-yl]propyl}-6,8-dimethylpyrido[3,2-d]pyrimidin-4(3H)-one dihydrochloride] | 2.18 µM
O=c1c2cnccc2ncn1C[C@@H](O)C[C@H]1NCC[C@@H]1O [Example 38, 3-{(S)-2-hydroxy-3-[(2R,3S)-3-hydroxypyrrolidin-2-yl]-propyl}pyrido[4,3-d]pyrimidin-4(3H)-one bis (2,2,2-trifluoroacetic acid)] | 2.3 µM
Cc1cc(Cl)cc2c(=O)n(CC(=O)CC3CCCCN3)cnc12 (stereo not shown) [Example 3, 6-Chloro-8-methyl-3-[2-oxo-3-(piperidin-2-yl)propyl]quinazolin-4(3H)-one hydrochloride] | 0.071 µM
Cc1cc(-c2ccc(F)c(F)c2)nc2c(=O)n(C[C@@H](O)C[C@H]3NCCC[C@@H]3O)cnc12 [Example 27, 6-(3,4-difluorophenyl)-3-((S)-2-hydroxy-3-((2R,3S)-3-hydroxypiperidin-2-yl)propyl)-8-methylpyrido[3,2-d]pyrimidin-4(3H)-one dihydrochloride] | 0.172 µM
Cc1cc(C(F)(F)F)cc2c(=O)n(CC(=O)C[C@@H]3CCCCN3)cnc12 [Example 19, (S)-8-methyl-3-{2-oxo-3-[piperidin-2-yl]propyl}-6-(trifluoromethyl)quinazolin-4(3H)-one 2,2,2-trifluoroacetate] | 0.159 µM
Cc1cc(C2CC2)nc2c(=O)n(C[C@@H](O)C[C@H]3NCCC[C@@H]3O)cnc12 [Example 30, 6-cyclopropyl-3-{(S)-2-hydroxy-3-[(2R,3S)-3-hydroxypiperidin-2-yl]propyl}-8-methylpyrido[3,2-d]pyrimidin-4(3H)-one dihydrochloride] | 0.425 µM
O=c1c2cnccc2ncn1C[C@@H](O)C[C@H]1NCCC[C@@H]1O [Example 26, 3-{(S)-2-Hydroxy-3-[(2R,3S)-3-hydroxypiperidin-2-yl]propyl}pyrido[4,3-d]pyrimidin-4(3H)-one dihydrochloride] | 0.08 µM
Cc1cc(C(C)C)cc2c(=O)n(CC(=O)C[C@@H]3CCCCN3)cnc12 [Example 18, (S)-6-isopropyl-8-methyl-3-{2-oxo-3-[piperidin-2-yl]propyl}quinazolin-4(3H)-one hydrochloride] | 0.14 µM
Cc1cc(-c2cccnc2)nc2c(=O)n(C[C@@H](O)C[C@H]3NCCC[C@@H]3O)cnc12 [Example 34, 3-{(S)-2-hydroxy-3-[(2R,3S)-3-hydroxypiperidin-2-yl]propyl}-8-methyl-6-(pyridin-3-yl)pyrido[3,2-d]pyrimidin-4(3H)-one trihydrochloride] | 0.29 µM

Molecules with a lower IC50, results first:

IC50 | Structure (SMILES)
0.008 µM | O=c1c2nc(-c3cccc(F)c3)ccc2ncn1C[C@@H](O)CC1NCCC[C@@H]1O (stereo partly drawn) [Example 24, 6-(3-Fluorophenyl)-3-{(2S)-2-hydroxy-3-[(3S)-3-hydroxypiperidin-2-yl]propyl}pyrido[3,2-d]pyrimidin-4(3H)-one dihydrochloride]
0.027 µM | Cc1cc(-c2cccc(C(F)(F)F)c2)nc2c(=O)n(C[C@@H](O)C[C@H]3NCCC[C@@H]3O)cnc12 [Example 28, 3-{(2S)-2-hydroxy-3-[(2R,3S)-3-hydroxy-2-piperidyl]propyl}-8-methyl-6-[3-(trifluoromethyl)phenyl]pyrido[3,2-d]pyrimidin-4-one;dihydrochloride]
0.009 µM | O=C(C[C@H]1NCCC[C@@H]1O)Cn1cnc2ccc(-c3cccnc3)nc2c1=O [Example 11, 3-{3-[(2R,3S)-3-hydroxypiperidin-2-yl]-2-oxopropyl}-6-(pyridin-3-yl)pyrido[3,2-d]pyrimidin-4(3H)-one trihydrochloride]
0.06 µM | O=C(C[C@@H]1CCCCN1)Cn1cnc2ccncc2c1=O [Example 20, (S)-3-{2-oxo-3-[piperidin-2-yl-propyl-pyrido(4,3-d)]}pyrimidin-4(3H)-one-dihydrochloride]
0.01 µM | O=C(C[C@H]1NCCC[C@@H]1O)Cn1cnc2ccc(-c3cccc(Cl)c3)nc2c1=O [Example 5, 6-(3-chlorophenyl)-3-{3-[(2R,3S)-3-hydroxypiperidin-2-yl]-2-oxopropyl}pyrido[3,2-d]pyrimidin-4(3H)-one dihydrochloride]
0.008 µM | Cc1cc(-c2cccc(C(F)(F)F)c2)nc2c(=O)n(CC(=O)C[C@H]3NCCC[C@@H]3O)cnc12 [Example 15, 3-{3-[(2R,3S)-3-hydroxypiperidin-2-yl]-2-oxopropyl}-8-methyl-6-(3-(trifluoromethyl)phenyl)pyrido[3,2-d]pyrimidin-4(3H)-one bis(2,2,2-trifluoroacetic acid)]
0.025 µM | O=c1c2nc(-c3ccc(F)c(F)c3)ccc2ncn1C[C@@H](O)C[C@H]1NCCC[C@@H]1O [Example 25, 6-(3,4-Difluorophenyl)-3-{(S)-2-hydroxy-3-[(2R,3S)-3-hydroxypiperidin-2-yl]propyl}pyrido[3,2-d]pyrimidin-4(3H)-one dihydrochloride]
0.017 µM | Cc1cc(C(F)(F)F)nc2c(=O)n(CC(=O)C[C@H]3NCCC[C@@H]3O)cnc12 [Example 13, 3-{3-[(2R,3S)-3-hydroxypiperidin-2-yl]-2-oxopropyl}-8-methyl-6-(trifluoromethyl)pyrido[3,2-d]pyrimidin-4(3H)-one dihydrochloride]
0.013 µM | Cc1cc(C2CC2)nc2c(=O)n(CC(=O)C[C@H]3NCCC[C@@H]3O)cnc12 [Example 12, 6-cyclopropyl-3-(3-((2R,3S)-3-hydroxypiperidin-2-yl)-2-oxopropyl)-8-methylpyrido[3,2-d]pyrimidin-4(3H)-one dihydrochloride]
0.02 µM | O=c1c2nc(-c3cccc(Cl)c3)ccc2ncn1C[C@@H](O)C[C@H]1NCCC[C@@H]1O [Example 22, 6-(3-Chlorophenyl)-3-{(S)-2-hydroxy-3-[(2R,3S)-3-hydroxypiperidin-2-yl]propyl}pyrido[3,2-d]pyrimidin-4(3H)-one dihydrochloride]
0.023 µM | O=C(C[C@H]1NCCC[C@@H]1O)Cn1cnc2ccc(-c3cccc(C(F)(F)F)c3)nc2c1=O [Example 6, 3-{3-[(2R,3S)-3-Hydroxypiperidin-2-yl]-2-oxopropyl}-6-[3-(trifluoromethyl)phenyl]pyrido[3,2-d]pyrimidin-4(3H)-one dihydrochloride]
0.005 µM | O=C(C[C@H]1NCCC[C@@H]1O)Cn1cnc2ccc(-c3cccc(F)c3)nc2c1=O [Example 7, 6-(3-Fluorophenyl)-3-{3-[(2R,3S)-3-hydroxypiperidin-2-yl]-2-oxopropyl}pyrido[3,2-d]pyrimidin-4(3H)-one dihydrochloride]
0.008 µM | O=C(C[C@H]1NCCC[C@@H]1O)Cn1cnc2ccc(-c3ccc(F)c(F)c3)nc2c1=O [Example 9, 6-(3,4-difluorophenyl)-3-{3-[(2R,3S)-3-hydroxypiperidin-2-yl]-2-oxopropyl}pyrido[3,2-d]pyrimidin-4(3H)-one dihydrochloride]
0.003 µM | Cc1cc(-c2cccc(Cl)c2)nc2c(=O)n(CC(=O)C[C@H]3NCCC[C@@H]3O)cnc12 [Example 16, 6-(3-chlorophenyl)-3-{3-[(2R,3S)-3-hydroxypiperidin-2-yl]-2-oxopropyl}-8-methylpyrido[3,2-d]pyrimidin-4(3H)-one bis(2,2,2-trifluoroacetate)]
0.014 µM | O=C(C[C@H]1NCCC[C@@H]1O)Cn1cnc2ccncc2c1=O [Example 8, 3-{3-[(2R,3S)-3-hydroxypiperidin-2-yl]-2-oxopropyl}pyrido[4,3-d]pyrimidin-4(3H)-one dihydrochloride]
